In patent publication US9884863B2, “STAT3 inhibitor” (Board of Regents, The University of Texas System, priority 2013, dated 2018):
Where two headings read alike, the source gives them in different places.

What was measured:
[1] = system: AsPC1; experiment: MTS cell proliferation assay, AsPC1; format: cell-based, human
Method: (§1) Cancer cells (breast cancer cell lines MCF-7, MDA-MB-361, SKBR3 and MDA-MB-231, pancreatic cancer cell lines AsPC-1. BxPC3 and Panc-1) were seeded in 96-well plates at a density of 1000-2000 cells/well and treated with DMSO, 0.01, 0.1, 1, 5, 10, and […] of STAT3 individual inhibitors for 72 hrs. Proliferation was measured by treating cells with the 3-(4,5-dimethylthiazol-2-yl)-5-(3-carboxymethoxyphenyl)-2-(4-sulfophenyl)-2H-tetrazolium) (MTS) in a CellTiter 96t AQueous Non-Radioactive Cell Proliferation Assay kit from Promega, Madison, Wis., USA). Absorbance of all wells was determined by measuring OD at 550 nm after 1 hr incubation at 37° C. on a 96-well iMark™ Microplate Absorbance Reader (BioRad, Hercules, Calif.). Each individual compound was tested in quadruplicate wells for each concentration, and the results were reported as mean absorption±s.e.
(§2) In Vitro Determination of Effects of Synthesized Compounds on Cancer Cell Proliferation. Cancer cells (breast cancer cell lines MCF-7 and MDA-MB-231, pancreatic cancer cell lines AsPC-1 and Panc-1) were seeded in 96-well plates at a density of 2×10^3 cells/well and treated with DMSO, 0.01, 0.1, 1, 5, 10, and 100 μM of individual STAT3 inhibitors for 72 h. Proliferation was measured by treating cells with the 3-(4,5-dimethylthiazol-2-yl)-5-(3-carboxymethoxyphenyl)-2-(4-sulfophenyl)-2H-tetrazolium) (MTS) in a CellTiter 96t Aqueous Non-Radioactive Cell Proliferation Assay kit (Promega, Madison, Wis., USA). Absorbance of all wells was determined by measuring OD at 550 nm after 1 h incubation at 37° C. on a 96-well iMark™ Microplate Absorbance Reader (BioRad, Hercules, Calif.). Each individual compound was tested in quadruplicate wells for each concentration.

[2] = system: MDA-MB-231; experiment: MTS cell proliferation assay, MDA-MB-231; format: cell-based, human
How it was run: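 Cells are exposed to DMSO or STAT3 inhibitors at 0.01-100 μM for 72 h, or at 1, 5 and 10 μM. Proliferation is read by MTS absorbance at 550 or 560 nm after 1 h at 37 °C. Each concentration is run in quadruplicate wells.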

[3] = system: Panc-1; experiment: MTS cell proliferation assay, Panc-1; format: cell-based, human
Method: as §1, §2

[4] = system: MCF-7; experiment: MTS cell proliferation assay, MCF-7; format: cell-based, human
How it was run: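 MCF-7 human breast cancer cells were exposed to test compounds at a range of concentrations, then proliferation was measured with the MTS reagent from Promega's CellTiter 96 AQueous Non-Radioactive Cell Proliferation Assay kit. After 1 hr at 37° C., OD at 550 nm was read on a 96-well iMark Microplate Absorbance Reader, with quadruplicate wells per concentration.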

[5] = system: MCF-7, MDA-MB-231, AsPC1 and Panc-1; experiment: MTS proliferation assays, breast and pancreatic cancer cell line panel; format: cell-based, human; conditions: Example 4 numbering
Method: as §2

[6] = system: BxPc-3H; experiment: MTS cell proliferation assay, BxPc-3H; format: cell-based; conditions: Homo sapiens; pancreatic cancer, 72 hrs; >10 = no effect; read-out: IC50 BxPc-3H (Table 1)
Method: as §1

[7] = system: MDA-MB-231 xenograft tumors; experiment: MDA-MB-231 xenograft tumor growth in nude mice; format: in vivo; conditions: i.p., 2.5, 7.5 and 12.5 mg/kg
[8] = system: MDA-MB-361; experiment: MTS cell proliferation assay, MDA-MB-361; format: cell-based; conditions: Homo sapiens, ER-positive breast cancer, 72 hrs, >10 = no effect, read-out: IC50 MDA-MB-361 (Table 1)
Method: as §1

[9] = system: STAT3 promoter activity in MDA-MB-231 cells; experiment: Transient transfection and dual luciferase reporter assay (pSTAT3-Luc); format: cell-based, human; conditions: Homo sapiens, MDA-MB-231, read-out: inhibition of STAT3 promoter activity at 5 μM; 24 h, compared with control; Example 4 numbering
Method: MDA-MB-231 cells were pre-treated with niclosamide or 11 at different concentrations for 24 h. The STAT3 promoter activity in MDA-MB-231 cells was determined after transient transfecting with pSTAT3-Luc vector.
Transient Transfection and Dual Luciferase Reporter Assays. MBA-MB-231 cells were seeded in 24-well plate at a density of 5×10^4 cells/well in RPMI-1640 medium containing 10% FBS and 1% penicillin-streptomycin. Transient transfections were performed 4 h after plating, using the method described previously (Rees, D. C. et al., 2004; Shen, Q. et al., 2008). Total amount of DNA for transfections was 0.5 μg/well, including pSTAT3-Luc (95%, obtained from Panomics, Cat# LR0077) and internal control vector renilla (5%, from Promega, Madison, Wis., USA). 5 h after transfection, the cells were treated with compound […] for 24 h, then reporter activity was evaluated using dual luciferase reporter assay kit (Promega, Madison, Wis., USA) on an Omega™ Microplate Luminometer (BMG LABTECH Inc., NC, USA). Relative luciferase units were the ratio of the absolute activity of firefly luciferase to that of renilla luciferase. Experiments were conducted with triplicates and results are representatives of at least 3 independent experiments.

[10] = format: in vivo; conditions: mouse, in vivo, 150 mg/kg
Method: Female nude mice at 4 to 6 wk of age were obtained from MDACC ERO facility. The mice were maintained in a barrier unit with 12 hours light-dark switch room and all materials were autoclaved. Freshly harvested MDA-MB-231 cells (2.5×10^6 cells per mouse, resuspended in 100 μl PBS) were injected into the 3rd mammary fat pad of the mice, and then mice were randomly assigned into control and treatment groups (≧6 mice per group). Treatment started when the xenograft mammary tumors reaches a volume of 200 mm^3. […] Mice were monitored daily for general health conditions (body weight, fur coat condition and posture) and toxicity (hair loss, skin rash, abdominal distension). […] Tumor volume was calculated as V=W^2×L/2, where L=longer diameter (mm) and W=width of short diameter (mm). […]
Female nude mice were obtained from MDACC and were used for orthotopic tumor studies at 4 to 6 weeks of age. […] Body weights and tumors volume were measured daily and tumor volume was calculated according to the formula V=0.5×L×W^2, where L=length (mm) and W=width (mm).
Twenty-two female nude mice (8 wks of age) were obtained from MDACC ERC Center. […] Body weights and tumors volume were measured daily and tumor volume calculated using the formula V=0.5×L×W^2, where L=length (mm) and W=width (mm) of xenograft tumors. Signs of toxicity were recorded individually. […]

[11] = system: SKBR3; experiment: MTS cell proliferation assay, SKBR3; format: cell-based; conditions: Homo sapiens, SK-BR-3; ER-negative breast cancer, 72 hrs; >10 = no effect; read-out: IC50 SKBR3 (Table 1)
Method: as §1

[12] = Homo sapiens, ASPC1, pancreatic cancer, 72 hrs, >10 = no effect, read-out: IC50 AsPC1 (Table 1)
[13] = Homo sapiens, MDA-MB-231, ER-negative breast cancer, 72 hrs, >10 = no effect, read-out: IC50 MDA-MB-231 (Table 1)
[14] = Homo sapiens, PANC-1, pancreatic cancer, 72 hrs, >10 = no effect, read-out: IC50 Panc-1 (Table 1)
[15] = Homo sapiens, MCF7, 72 h; read-out: IC50 MCF-7 (Table 1)
[16] = MCF-7, 48 hr, μM concentrations
[17] = Homo sapiens, ASPC1, 72 h, read-out: IC50 AsPC1 (Table 1)
[18] = Homo sapiens, MDA-MB-231, 72 h, read-out: IC50 MDA-MB-231 (Table 1)
[19] = Homo sapiens, PANC-1, 72 h, read-out: IC50 Panc-1 (Table 1)
[20] = Homo sapiens, MCF7, 72 h, read-out: IC50 MCF-7 (Table 1)
[21] = Homo sapiens, MDA-MB-231, Example 4 numbering, 72 h, >10 = no effect, read-out: IC50 MDA-MB-231 (Table 5)
[22] = Homo sapiens, MCF7; Example 4 numbering, 72 h; >10 = no effect; read-out: IC50 MCF-7 (Table 5)

| Compound | IC50 [1, 12] | IC50 [2, 13] | IC50 [6] | IC50 [3, 14] | IC50 [8] | IC50 [4, 15] | IC50 [11] | antiproliferative activity in words (Example 4) [5] | inhibition on breast cancer cell proliferation (FIG. 1) [4, 16] | other results |
| --- | --- | --- | --- | --- | --- | --- | --- | --- | --- | --- |
| Quinoline-3-carboxylic acid (1,1-dioxo-1H-1λ^6-benzo[b]thiophen-6-yl)amide [Compound 23] |  |  |  |  |  |  |  | moderate to low antiproliferative activity |  | IC50 ([1]; Example 4 numbering, 72 h, >10 = no effect, read-out: IC50 AsPC1 (Table 5)): 6970 nM; IC50 ([2]; Example 4 numbering, 72 h, >10 = no effect, read-out: IC50 MDA-MB-231 (Table 5)): 6210 nM; IC50 ([3]; Example 4 numbering, 72 h, >10 = no effect, read-out: IC50 Panc-1 (Table 5)): 7920 nM; IC50 ([4]; Example 4 numbering, 72 h; >10 = no effect; read-out: IC50 MCF-7 (Table 5)): 2970 nM |
| O=C(Nc1ccc2c(c1)S(=O)(=O)C=C2)c1cc(-c2ccccc2)nc2ccccc12 [Compound 5] |  |  |  |  |  |  |  |  |  | IC50 ([1]; Homo sapiens, ASPC1, 72 h, read-out: IC50 AsPC1 (Table 4)): 1250 nM; IC50 ([1]; Homo sapiens, ASPC1, 72 h, read-out: IC50 AsPC1 (Table 5)): 1250 nM; IC50 ([2]; Homo sapiens, MDA-MB-231, 72 h, read-out: IC50 MDA-MB-231 (Table 4)): 290 nM; IC50 ([2]; Homo sapiens, MDA-MB-231, 72 h, read-out: IC50 MDA-MB-231 (Table 5)): 290 nM; inhibition at 5 µM [9]: ~65%; IC50 ([3]; Homo sapiens, PANC-1, 72 h, read-out: IC50 Panc-1 (Table 4)): 260 nM; IC50 ([3]; Homo sapiens, PANC-1, 72 h, read-out: IC50 Panc-1 (Table 5)): 260 nM; signs of toxicity at 150 mg/kg [10]: did not show significant signs of toxicity; IC50 ([4]; Homo sapiens, MCF7, 72 h, read-out: IC50 MCF-7 (Table 4)): 100 nM; IC50 ([4]; Homo sapiens, MCF7, 72 h, read-out: IC50 MCF-7 (Table 5)): 100 nM |
| O=C(Nc1ccc2c(c1)S(=O)(=O)C=C2)c1cc(-c2ccccc2)nc2ccccc12 [HJC-1-23, 2-Phenyl-quinoline-4-carboxylic acid (1,1-dioxo-1H-1λ^6-benzo[b]thiophen-6-yl)-amide] |  |  | 200 nM |  | 240 nM |  | 220 nM |  | significant inhibition | IC50 [1, 17]: 1250 nM; IC50 [2, 18]: 290 nM; IC50 [3, 19]: 260 nM; IC50 [4, 20]: 100 nM |
| O=C(Nc1ccc2c(c1)S(=O)(=O)C=C2)c1ccncc1 [Compound 21, N-(1,1-Dioxo-1H-1λ^6-benzo[b]thiophen-6-yl)isonicotinamide] |  |  |  |  |  |  |  | moderate to low antiproliferative activity |  | IC50 [2, 21]: > 10000 nM; IC50 [4, 22]: > 10000 nM; melting point: 251 to 252 °C |
| O=C(Nc1ccc2c(c1)S(=O)(=O)C=C2)c1ccnc(-c2ccccc2)c1 [Compound 22, N-(1,1-Dioxo-1H-1λ^6-benzo[b]thiophen-6-yl)-2-phenyl-isonicotinamide] |  |  |  |  |  |  |  | low micromolar IC50 values |  | IC50 ([1]; Homo sapiens, ASPC1, Example 4 numbering, 72 h, >10 = no effect, read-out: IC50 AsPC1 (Table 5)): 1300 nM; IC50 [2, 21]: 1850 nM; IC50 ([3]; Homo sapiens, PANC-1, Example 4 numbering, 72 h, >10 = no effect, read-out: IC50 Panc-1 (Table 5)): 3350 nM; IC50 [4, 22]: 3780 nM; melting point: 285 to 286 °C |
| O=C(Nc1ccc([N+](=O)[O-])cc1Cl)c1cc(-c2ccccc2)nc2ccccc12 [HJC-1-17, 2-Phenyl-quinoline-4-carboxylic acid (2-chloro-4-nitro-phenyl)amide] |  |  | > 10000 nM |  | 17400 nM |  | > 10000 nM |  |  | IC50 [1, 17]: > 10000 nM; IC50 [2, 18]: > 10000 nM; IC50 [3, 19]: > 10000 nM; IC50 [4, 20]: 15900 nM |

The next lines start with results.

| IC50 [1, 12] | IC50 [2, 13] | IC50 [6] | IC50 [3, 14] | IC50 [8] | IC50 [4, 15] | IC50 [11] | Compound | antiproliferative activity in words (Example 4) [5] | inhibition on breast cancer cell proliferation (FIG. 1) [4, 16] | other results |
| --- | --- | --- | --- | --- | --- | --- | --- | --- | --- | --- |
| 1900 nM | 1640 nM | 1070 nM | 1080 nM | 2370 nM | 910 nM |  | NCCOc1ccc(Cl)cc1C(=O)Nc1ccc([N+](=O)[O-])cc1Cl [HJC-1-52, 2-(2-Aminoethoxy)-5-chloro-N-(2-chloro-4-nitrophenyl)benzamide] |  | significant inhibition | growth of xenograft tumors (FIG. 3) [7]: significantly suppresses tumor growth |
| 120 nM | 450 nM | 270 nM | 310 nM | 230 nM | 650 nM | 200 nM | O=C(Nc1ccc2c(c1)S(=O)(=O)C=C2)c1cc(-c2ccccc2)nc(-c2ccccc2)c1 [HJC-1-36, N-(1,1-Dioxo-1H-1λ^6-benzo[b]thiophen-6-yl)-2,6-diphenyl-isonicotinamide] |  | significant inhibition |  |
| 1920 nM | 1640 nM | 1160 nM | 2340 nM | 2370 nM | 910 nM | 720 nM | O=C(Nc1ccc2c(c1)S(=O)(=O)C=C2)c1cc(Cl)ccc1O [HJC-1-49, 5-Chloro-N-(1,1-dioxo-1H-1λ^6-benzo[b]thiophen-6-yl)-2-hydroxybenzamide] |  | significant inhibition |  |
| 37600 nM | 66300 nM | > 10000 nM | > 10000 nM | 22800 nM | > 10000 nM | 11200 nM | CC(=O)Nc1ccc(NC(=O)c2cc(Cl)ccc2O)c(Cl)c1 [HJC-1-40, N-(4-Acetylamino-2-chlorophenyl)-5-chloro-2-hydroxybenzamide] |  |  |  |
